# Measurements published in paper PMC11347369, “Synthesis and antibacterial action of 3’,6’-disubstituted spectinomycins” (The Journal of Antibiotics, 2024).
# Counter-ions that a name gives are not always drawn. Like-named read-outs stand apart in the source and are kept apart here.
# What was measured:
# [1] = test system: M. tuberculosis H37Rv ∆1258c; assay: microbe, parasite or virus in culture; assay type: cell-based; details: Mycobacterium tuberculosis, 168 h
# P. aeruginosa ATCC 15692 = assay: MIC broth microdilution, P. aeruginosa; assay type: cell-based, Pseudomonas aeruginosa; details: Pseudomonas aeruginosa, ATCC15692, read-out: Minimum Inhibitory Concentration
# [2] = test system: M. smegmatis strain MC^2 155; assay: MIC broth microdilution, M. smegmatis; assay type: cell-based, Mycobacterium smegmatis; details: Mycolicibacterium smegmatis, MC^2155, 72 h, read-out: WT MIC
# [3] = test system: K. pneumoniae ATCC 700603; assay: MIC broth microdilution, K. pneumoniae; assay type: cell-based, Klebsiella pneumoniae; details: Klebsiella pneumoniae, ATCC700603, read-out: Minimum Inhibitory Concentration
# S. aureus USA300 = assay: MIC broth microdilution, S. aureus; assay type: cell-based; details: Staphylococcus aureus, USA300, read-out: Minimum Inhibitory Concentration
# E. faecium ATCC 19434 = assay: MIC broth microdilution, E. faecium; assay type: cell-based; details: Enterococcus faecium, ATCC19434, read-out: Minimum Inhibitory Concentration
# [4] = biological target: T1, M. smegmatis ribosomes (strain SZ380) (Mycolicibacterium smegmatis, UniProt A0QSG6); assay: Mycobacterial cell-free translation inhibition assay; assay type: biochemical, Mycobacterium smegmatis
# T1 construct: S30 extracts were prepared by addition of dithiothreitol (DTT) to 1 mM and centrifugation; endogenous in cells; host or cells: M. smegmatis strain SZ380, S30 cell extract
# T1 sequence (A0QSG6 whole entry): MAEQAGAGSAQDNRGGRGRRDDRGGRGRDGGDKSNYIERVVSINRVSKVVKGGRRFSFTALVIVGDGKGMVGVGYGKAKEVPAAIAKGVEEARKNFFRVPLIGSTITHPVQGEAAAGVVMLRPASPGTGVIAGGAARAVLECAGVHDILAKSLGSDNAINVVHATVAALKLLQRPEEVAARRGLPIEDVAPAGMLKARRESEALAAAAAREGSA
# Experimental: Mycobacterial cell-free translation inhibition assays were performed as described previously. In brief, M. smegmatis strain SZ380 bacterial cells were disrupted and emulsified with a microfluidizer processor (Microfluidics, Westwood, MA, USA) at 25,000 lb/in^2. S30 extracts were prepared by addition of dithiothreitol (DTT) to 1 mM and centrifugation at 30,000 × g at 4 °C. Translation reaction mixtures containing either test article or DMSO vehicle control and 4 μl of the S30 extract, 0.2 mM amino acid mix, 6 μg tRNA (Sigma), 0.4 μg hFluc mRNA, 0.3 μl protease inhibitor (complete, EDTA-free, Roche), 12 U RNAse inhibitor (Ribolock, Thermo Scientific), 6 μl S30 premix without amino acids (Promega), plus water to a final reaction volume of 15 μl were incubated for 1 h at 37 °C. The reaction was stopped on ice before adding 75 μl of luciferase assay reagent (Promega) and recording of luminescence. Regression analysis and IC50 calculations were performed using GraphPad Prism version 9.3.1 by using the equation [log(inhibitor) vs. response–Variable slope (four parameters)] with the fitting method: least squares (ordinary) fit. Y = Bottom + (Top-Bottom)/(1 + 10^((X-LogIC50))).
# M. tuberculosis H37Rv [5] = assay: microbe, parasite or virus in culture; details: Mycobacterium tuberculosis, 168 h, read-out: WT MIC
# S. pyogenes ATCC 700294 = assay: MIC broth microdilution, S. pyogenes; assay type: cell-based; details: Streptococcus pyogenes, ATCC700294, read-out: Minimum Inhibitory Concentration
# M. abscessus ATCC 19977 [6] = assay: microbe, parasite or virus in culture; details: Mycobacteroides abscessus, ATCC19977, 72 h, read-out: WT MIC
# M. abscessus ATCC 19977 [7] = test system: M. abscessus ATCC 19977
# M. tuberculosis H37Rv [8] = test system: M. tuberculosis H37Rv
# E. coli K12 [9] = assay: microbe, parasite or virus in culture; details: Escherichia coli, K12, read-out: Minimum Inhibitory Concentration
# A. baumannii ATCC 19606 = assay: MIC broth microdilution, A. baumannii; assay type: cell-based, Acinetobacter baumannii; details: Acinetobacter baumannii, ATCC19606, read-out: Minimum Inhibitory Concentration
# E. coli K12 ∆tolC = assay: microbe, parasite or virus in culture; assay type: cell-based; details: Escherichia coli, read-out: Minimum Inhibitory Concentration
# [10] = test system: S. epidermidis ATCC 14990; assay: MIC broth microdilution, S. epidermidis; assay type: cell-based; details: Staphylococcus epidermidis, ATCC14990, read-out: Minimum Inhibitory Concentration
# E. faecalis ATCC 29212 = assay: MIC broth microdilution, E. faecalis; assay type: cell-based; details: Enterococcus faecalis, ATCC29212, read-out: Minimum Inhibitory Concentration
# S. pneumoniae R6 = assay: MIC broth microdilution, S. pneumoniae; assay type: cell-based; details: Streptococcus pneumoniae, read-out: Minimum Inhibitory Concentration
# E. coli K12 [11] = details: E. coli K12 MIC versus K12 ∆tolC MIC
# [12] = test system: M. abscessus ATCC 19977 ∆2780c; assay: microbe, parasite or virus in culture; assay type: cell-based, Mycobacterium abscessus; details: Mycobacteroides abscessus, ATCC19977, 72 h, read-out: ∆2780c MIC
# [13] = cell-free translation, M. smegmatis SZ380 S30 extract, luciferase readout, read-out: Ribo. IC50
structure (smiles),measurement,setting,value
"CCCCC1CC(O)(CNCCc2ccc(F)cc2)C2(O)OC3C(NC)C(O)C(NC)C(O)C3OC2O1 [eAmTroSPC (8), 3′(R)-[(4-Fluorophenylethyl)aminomethyl]-6’-propyl-dihydrospectinomycin trihydrochloride]",MIC,[1],0.25 µg/mL
same,MIC,P. aeruginosa ATCC 15692,> 64 µg/mL
same,MIC,[2],8 µg/mL
same,MIC,[3],> 64 µg/mL
same,MIC,S. aureus USA300,64 µg/mL
same,MIC,E. faecium ATCC 19434,32 µg/mL
same,IC50,[4],2310 nM
same,MIC,M. tuberculosis H37Rv [5],2 µg/mL
same,MIC,S. pyogenes ATCC 700294,4 µg/mL
same,MIC,M. abscessus ATCC 19977 [6],8 µg/mL
same,Efflux Ratio,M. abscessus ATCC 19977 [7],1
same,Efflux Ratio,M. tuberculosis H37Rv [8],8
same,MIC,E. coli K12 [9],64 µg/mL
same,MIC,A. baumannii ATCC 19606,> 64 µg/mL
same,MIC,E. coli K12 ∆tolC,4 to 8 µg/mL
same,MIC,[10],8 µg/mL
same,MIC,E. faecalis ATCC 29212,32 µg/mL
same,MIC,S. pneumoniae R6,8 µg/mL
same,E. coli Efflux Ratio,E. coli K12 [11],8–16
same,MIC,[12],8 µg/mL
"CCCCC1CC(O)(CNCc2ccc(F)cc2)C2(O)OC3C(NC)C(O)C(NC)C(O)C3OC2O1 [bAmTroSPC (6), 3′(R)-[(4-Fluorobenzyl)aminomethyl]-6’-propyl-dihydrospectinomycin trihydrochloride]",MIC,[1],1 µg/mL
same,MIC,P. aeruginosa ATCC 15692,> 64 µg/mL
same,MIC,[2],64 µg/mL
same,MIC,[3],> 64 µg/mL
same,MIC,S. aureus USA300,64 µg/mL
same,MIC,E. faecium ATCC 19434,32 µg/mL
same,IC50,[4]; [13],2490 nM
same,MIC,M. tuberculosis H37Rv [5],8 µg/mL
same,MIC,S. pyogenes ATCC 700294,2 µg/mL
same,MIC,M. abscessus ATCC 19977 [6],64 µg/mL
same,Efflux Ratio,M. abscessus ATCC 19977 [7],1
same,Efflux Ratio,M. tuberculosis H37Rv [8],8
same,MIC,E. coli K12 [9],32 µg/mL
same,MIC,A. baumannii ATCC 19606,> 64 µg/mL
same,MIC,E. coli K12 ∆tolC,4 to 8 µg/mL
same,MIC,[10],16 µg/mL
same,MIC,E. faecalis ATCC 29212,32 µg/mL
same,MIC,S. pneumoniae R6,4 µg/mL
same,E. coli Efflux Ratio,E. coli K12 [11],4–8
same,MIC,[12],64 µg/mL
"CCCC[C@@H]1C[C@@H](N)[C@]2(O)O[C@@H]3[C@@H](NC)[C@@H](O)[C@@H](NC)[C@H](O)[C@H]3O[C@@H]2O1 [Amino TroSPC (11), 3’-(R)-Amino-3’-deoxy-6’-propyl-dihydrospectinomycin trihydrochloride]",MIC,[1],2 µg/mL
same,MIC,P. aeruginosa ATCC 15692,> 64 µg/mL
same,MIC,[2],32 µg/mL
same,MIC,[3],> 64 µg/mL
same,MIC,S. aureus USA300,> 64 µg/mL
same,MIC,E. faecium ATCC 19434,> 64 µg/mL
same,IC50,[4]; [13],640 nM
same,MIC,M. tuberculosis H37Rv [5],16 µg/mL
same,MIC,S. pyogenes ATCC 700294,32 µg/mL
same,MIC,M. abscessus ATCC 19977 [6],64 µg/mL
same,Efflux Ratio,M. abscessus ATCC 19977 [7],1
same,Efflux Ratio,M. tuberculosis H37Rv [8],8
same,MIC,E. coli K12 [9],> 64 µg/mL
same,MIC,A. baumannii ATCC 19606,> 64 µg/mL
same,MIC,E. coli K12 ∆tolC,32 µg/mL
same,MIC,[10],> 64 µg/mL
same,MIC,E. faecalis ATCC 29212,> 64 µg/mL
same,MIC,S. pneumoniae R6,64 µg/mL
same,E. coli Efflux Ratio,E. coli K12 [11],>2
same,MIC,[12],64 µg/mL
"CCCC[C@@H]1C[C@@H](NC(=O)Cc2ccccn2)[C@]2(O)O[C@@H]3[C@@H](NC)[C@@H](O)[C@@H](NC)[C@H](O)[C@H]3O[C@@H]2O1 [TroSPA (4), 3′-Deoxy-3′(R)-[(pyridin-2-yl)acetylamino]-6’-propyl-dihydrospectinomycin dihydrochloride]",MIC,[1],1 µg/mL
same,MIC,P. aeruginosa ATCC 15692,> 64 µg/mL
same,MIC,[2],32 µg/mL
same,MIC,[3],> 64 µg/mL
same,MIC,S. aureus USA300,> 64 µg/mL
same,MIC,E. faecium ATCC 19434,> 64 µg/mL
same,IC50,[4],2450 nM
same,MIC,M. tuberculosis H37Rv [5],2 µg/mL
same,MIC,S. pyogenes ATCC 700294,8 µg/mL
same,MIC,M. abscessus ATCC 19977 [6],64 µg/mL
same,Efflux Ratio,M. abscessus ATCC 19977 [7],4
same,Efflux Ratio,M. tuberculosis H37Rv [8],2
same,MIC,E. coli K12 [9],> 64 µg/mL
same,MIC,A. baumannii ATCC 19606,> 64 µg/mL
same,MIC,E. coli K12 ∆tolC,32 µg/mL
same,MIC,[10],> 64 µg/mL
same,MIC,E. faecalis ATCC 29212,> 64 µg/mL
same,MIC,S. pneumoniae R6,16 µg/mL
same,E. coli Efflux Ratio,E. coli K12 [11],>2
same,MIC,[12],16 µg/mL
"CCCCC1CC(O)(CN)C2(O)OC3C(NC)C(O)C(NC)C(O)C3OC2O1 [AmTroSPC (13), 3’-(R)-Aminomethyl-6’-propyl-dihydrospectinomycin]",MIC,[1],8 µg/mL
same,MIC,P. aeruginosa ATCC 15692,> 64 µg/mL
same,MIC,[2],128 µg/mL
same,MIC,[3],> 64 µg/mL
same,MIC,S. aureus USA300,> 64 µg/mL
same,MIC,E. faecium ATCC 19434,> 64 µg/mL
same,IC50,[4]; [13],2710 nM
same,MIC,M. tuberculosis H37Rv [5],64 µg/mL
same,MIC,S. pyogenes ATCC 700294,16 µg/mL
same,MIC,M. abscessus ATCC 19977 [6],64 µg/mL
same,Efflux Ratio,M. abscessus ATCC 19977 [7],1
same,Efflux Ratio,M. tuberculosis H37Rv [8],8
same,MIC,E. coli K12 [9],> 64 µg/mL
same,MIC,A. baumannii ATCC 19606,> 64 µg/mL
same,MIC,E. coli K12 ∆tolC,32 µg/mL
same,MIC,[10],> 64 µg/mL
same,MIC,E. faecalis ATCC 29212,> 64 µg/mL
same,MIC,S. pneumoniae R6,16 to 32 µg/mL
same,E. coli Efflux Ratio,E. coli K12 [11],>2
same,MIC,[12],64 µg/mL
